Experiment [1] concerns the target T1, NaV1.8 (Homo sapiens, UniProt Q9Y5Y9). As to the kind of experiment: Activity against NaV1.8 channel (Table 4). The format is cell-based. On the procedure: Compounds of the invention are useful as antagonists of voltage-gated sodium ion channels. Antagonist properties of test compounds were assessed as follows. Cells expressing the NaV of interest were placed into microtiter plates. After an incubation period, the cells were stained with fluorescent dyes sensitive to the transmembrane potential. The test compounds were added to the microtiter plate. The cells were stimulated with either a chemical or electrical means to evoke a NaV dependent membrane potential change from unblocked channels, which was detected and measured with trans-membrane potential-sensitive dyes. Antagonists were detected as a decreased membrane potential response to the stimulus. The optical membrane potential assay utilized voltage-sensitive FRET sensors described by Gonzalez and Tsien (See, Gonzalez, J. E. and R. Y. Tsien (1995) “Voltage sensing by fluorescence resonance energy transfer in single cells” Biophys J 69(4): 1272-80, and Gonzalez, J. E. and R. Y. Tsien (1997) “Improved indicators of cell membrane potential that use fluorescence resonance energy transfer” Chem Biol 4(4): 269-77) in combination with instrumentation for measuring fluorescence changes such as the Voltage/Ion Probe Reader (VIPR®) (See, Gonzalez, J. E., K. Oades, et al. (1999) “Cell-based assays and instrumentation for screening ion-channel targets” Drug Discov Today 4(9): 431-439). B) VIPR® optical membrane potential assay method with chemical stimulation
24 hours before the assay on VIPR, CHO cells endogenously expressing a NaV1.2 type voltage-gated NaV are seeded in 96-well poly-lysine coated plates at 60,000 cells per well. […] The cells are then incubated for 20-30 minutes. • 7) Once the incubation is complete, the cells are ready to be assayed on VIPR® with a sodium addback protocol. […]
The following is an example of how NaV1.3 inhibition activity is measured using the optical membrane potential method#2. […]

The subject of a further experiment is neuropathic pain. The conditions noted are these: in vivo; cited from earlier work.
The next experiment concerns the target NaV1.3 (Homo sapiens, UniProt Q9NY46). Conditions: read-out: TTX IC50; cited from earlier work.
Another experiment addresses NaV1.6 (Homo sapiens, UniProt Q9UQD0). The conditions noted are these: read-out: TTX IC50; cited from earlier work.
Experiment [2] has as its target T1, NaV1.8. Conditions: read-out: TTX IC50; cited from earlier work.
The target of the next experiment is NaV1.9 (Homo sapiens, UniProt Q9UI33). The conditions noted are these: read-out: TTX IC50; cited from earlier work.
The target in another experiment is NaV1.1 (Homo sapiens, UniProt P35498). Conditions: read-out: TTX IC50; cited from earlier work.
The target of the next experiment is NaV1.2 (Homo sapiens, UniProt Q99250). Conditions: read-out: TTX IC50; cited from earlier work.

Structures are written as SMILES. pIC50: −log10 of the molar value. Like-named read-outs stand apart in the source and are kept apart here.

T1 sequence (Q9Y5Y9 whole entry, looked up): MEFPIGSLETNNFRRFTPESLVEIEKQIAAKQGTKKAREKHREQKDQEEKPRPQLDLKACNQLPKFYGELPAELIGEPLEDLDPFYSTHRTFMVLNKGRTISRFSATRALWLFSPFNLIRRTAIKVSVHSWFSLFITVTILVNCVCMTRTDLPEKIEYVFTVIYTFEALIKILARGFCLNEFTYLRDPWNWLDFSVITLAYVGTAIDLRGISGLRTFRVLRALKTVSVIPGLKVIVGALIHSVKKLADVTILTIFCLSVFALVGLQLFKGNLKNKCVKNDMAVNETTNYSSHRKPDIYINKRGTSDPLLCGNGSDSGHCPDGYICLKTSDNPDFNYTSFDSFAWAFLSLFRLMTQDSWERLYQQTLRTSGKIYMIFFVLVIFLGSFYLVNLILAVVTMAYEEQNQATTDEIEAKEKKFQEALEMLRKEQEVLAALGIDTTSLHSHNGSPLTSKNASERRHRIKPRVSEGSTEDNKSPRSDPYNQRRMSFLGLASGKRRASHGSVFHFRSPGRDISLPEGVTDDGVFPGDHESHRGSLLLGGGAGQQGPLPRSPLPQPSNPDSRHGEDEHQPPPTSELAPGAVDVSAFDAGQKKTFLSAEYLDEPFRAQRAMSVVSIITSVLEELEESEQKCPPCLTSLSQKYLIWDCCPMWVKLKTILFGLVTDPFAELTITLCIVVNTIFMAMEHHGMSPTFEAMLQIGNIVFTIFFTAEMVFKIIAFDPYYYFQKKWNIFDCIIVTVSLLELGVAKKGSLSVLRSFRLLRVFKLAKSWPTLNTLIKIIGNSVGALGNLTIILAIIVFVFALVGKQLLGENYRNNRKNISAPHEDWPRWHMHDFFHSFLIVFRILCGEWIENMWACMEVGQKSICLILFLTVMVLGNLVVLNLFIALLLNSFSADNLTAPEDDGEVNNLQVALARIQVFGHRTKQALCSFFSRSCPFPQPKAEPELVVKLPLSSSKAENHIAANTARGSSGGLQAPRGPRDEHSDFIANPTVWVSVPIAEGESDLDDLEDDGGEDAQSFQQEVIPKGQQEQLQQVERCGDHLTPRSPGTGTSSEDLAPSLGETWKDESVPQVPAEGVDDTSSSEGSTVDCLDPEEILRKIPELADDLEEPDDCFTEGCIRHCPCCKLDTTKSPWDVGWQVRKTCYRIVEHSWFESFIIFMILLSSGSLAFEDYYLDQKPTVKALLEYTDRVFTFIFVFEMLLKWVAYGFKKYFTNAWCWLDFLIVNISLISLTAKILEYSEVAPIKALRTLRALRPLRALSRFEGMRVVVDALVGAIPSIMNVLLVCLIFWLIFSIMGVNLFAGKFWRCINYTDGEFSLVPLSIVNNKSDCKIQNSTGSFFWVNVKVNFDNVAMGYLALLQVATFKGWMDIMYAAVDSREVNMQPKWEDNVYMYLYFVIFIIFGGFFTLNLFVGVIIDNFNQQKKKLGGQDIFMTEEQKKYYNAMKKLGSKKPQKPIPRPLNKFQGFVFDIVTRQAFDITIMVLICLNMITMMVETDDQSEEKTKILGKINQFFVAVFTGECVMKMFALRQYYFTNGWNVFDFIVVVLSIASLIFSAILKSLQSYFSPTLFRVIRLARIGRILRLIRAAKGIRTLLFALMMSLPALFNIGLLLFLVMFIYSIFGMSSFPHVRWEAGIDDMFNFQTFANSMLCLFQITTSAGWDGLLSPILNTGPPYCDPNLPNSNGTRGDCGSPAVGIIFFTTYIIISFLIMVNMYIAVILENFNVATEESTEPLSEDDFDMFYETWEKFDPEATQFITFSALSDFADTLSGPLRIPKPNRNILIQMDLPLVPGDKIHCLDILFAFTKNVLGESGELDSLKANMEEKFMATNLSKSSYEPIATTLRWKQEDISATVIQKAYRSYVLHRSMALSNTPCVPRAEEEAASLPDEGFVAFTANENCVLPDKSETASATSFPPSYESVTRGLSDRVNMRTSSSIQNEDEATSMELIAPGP
Sequence of NaV1.3 (Q9NY46 whole entry, looked up): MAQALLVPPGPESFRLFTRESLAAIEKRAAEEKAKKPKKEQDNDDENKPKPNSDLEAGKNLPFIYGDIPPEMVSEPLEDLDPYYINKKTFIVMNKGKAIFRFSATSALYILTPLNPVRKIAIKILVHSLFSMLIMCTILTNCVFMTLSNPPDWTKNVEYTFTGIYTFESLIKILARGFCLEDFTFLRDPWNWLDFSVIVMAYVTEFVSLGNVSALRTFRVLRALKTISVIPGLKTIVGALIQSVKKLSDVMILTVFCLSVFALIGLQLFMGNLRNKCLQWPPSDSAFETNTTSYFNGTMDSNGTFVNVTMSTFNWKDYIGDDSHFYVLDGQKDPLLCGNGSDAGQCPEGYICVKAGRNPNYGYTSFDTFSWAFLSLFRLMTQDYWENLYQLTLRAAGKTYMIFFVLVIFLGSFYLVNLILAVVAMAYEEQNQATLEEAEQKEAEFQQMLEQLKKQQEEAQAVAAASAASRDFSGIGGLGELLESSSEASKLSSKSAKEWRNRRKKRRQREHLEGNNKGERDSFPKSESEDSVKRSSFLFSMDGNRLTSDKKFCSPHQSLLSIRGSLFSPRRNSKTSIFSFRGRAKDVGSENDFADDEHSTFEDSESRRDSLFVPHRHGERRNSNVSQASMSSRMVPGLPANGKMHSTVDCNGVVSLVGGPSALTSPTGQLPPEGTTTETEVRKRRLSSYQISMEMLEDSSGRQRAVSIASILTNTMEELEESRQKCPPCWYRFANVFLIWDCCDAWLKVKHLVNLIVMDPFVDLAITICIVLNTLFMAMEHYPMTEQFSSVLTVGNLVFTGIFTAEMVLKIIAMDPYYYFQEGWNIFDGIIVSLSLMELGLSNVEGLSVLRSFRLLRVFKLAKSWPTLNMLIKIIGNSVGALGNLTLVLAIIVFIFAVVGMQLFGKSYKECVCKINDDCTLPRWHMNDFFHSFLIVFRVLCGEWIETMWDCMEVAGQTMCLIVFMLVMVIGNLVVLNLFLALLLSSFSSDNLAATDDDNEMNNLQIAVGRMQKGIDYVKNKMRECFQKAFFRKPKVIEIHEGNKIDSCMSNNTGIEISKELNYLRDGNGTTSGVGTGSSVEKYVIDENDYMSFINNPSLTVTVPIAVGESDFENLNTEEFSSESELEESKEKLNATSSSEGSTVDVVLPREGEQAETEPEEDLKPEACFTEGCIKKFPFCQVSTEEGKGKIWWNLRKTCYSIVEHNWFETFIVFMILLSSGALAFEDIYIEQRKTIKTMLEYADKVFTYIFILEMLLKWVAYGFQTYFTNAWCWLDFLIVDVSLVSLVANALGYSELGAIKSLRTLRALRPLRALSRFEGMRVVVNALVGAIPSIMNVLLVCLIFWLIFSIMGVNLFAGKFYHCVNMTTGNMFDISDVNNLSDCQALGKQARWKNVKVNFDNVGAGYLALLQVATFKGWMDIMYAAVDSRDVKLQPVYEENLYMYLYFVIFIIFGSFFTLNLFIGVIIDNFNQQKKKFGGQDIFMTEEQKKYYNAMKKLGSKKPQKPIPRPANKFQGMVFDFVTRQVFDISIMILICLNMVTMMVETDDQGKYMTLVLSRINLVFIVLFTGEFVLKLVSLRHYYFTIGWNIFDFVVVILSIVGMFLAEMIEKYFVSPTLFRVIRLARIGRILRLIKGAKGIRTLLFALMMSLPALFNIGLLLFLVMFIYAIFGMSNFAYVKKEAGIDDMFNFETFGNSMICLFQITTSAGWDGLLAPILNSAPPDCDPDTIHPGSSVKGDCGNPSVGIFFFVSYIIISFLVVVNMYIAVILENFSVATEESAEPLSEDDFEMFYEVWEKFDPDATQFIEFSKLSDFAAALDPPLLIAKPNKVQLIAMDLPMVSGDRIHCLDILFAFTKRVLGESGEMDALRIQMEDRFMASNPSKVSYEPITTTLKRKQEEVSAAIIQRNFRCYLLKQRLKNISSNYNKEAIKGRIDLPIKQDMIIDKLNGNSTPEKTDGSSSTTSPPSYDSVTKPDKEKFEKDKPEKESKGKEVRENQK

In the case of `CC(C)COC(=O)NC1CCN(c2nc(-c3ccccc3O)cc3ccccc23)CC1` [Compound 1, Isobutyl 1-(3-(2-hydroxyphenyl)isoquinolin-1-yl)piperidin-4-ylcarbamate], the pIC50 on NaV1.8 [1] is 4.82 to 5.00.

As for `CC(C)COC(=O)N1CCN(c2nc(-c3ccccc3O)cc3ccccc23)CC1` [Compound 3, Isobutyl 4-(3-(2-hydroxyphenyl)isoquinolin-1-yl)piperazine-1-carboxylate], the pIC50 on NaV1.8 [1] was under 4.82.

As to `CC(C)COC(=O)N1CCN(c2nc(-c3ccccc3C(F)F)cc3ccccc23)CC1` [Compound 4, Isobutyl 4-(3-(2-(difluoromethyl)phenyl)isoquinolin-1-yl)piperazine-1-carboxylate], the pIC50 on NaV1.8 [1] was under 4.82.

With `NCC1(CC(=O)O)CCCCC1` [Gabapentin], the “share of patients in whom it works” value with neuropathic pain is on record as 60%.

Turning to `NC1=N[C@H](O)[C@H]2[C@H]3O[C@]4(O)O[C@@H]([C@@H](O)[C@@]2(N1)[C@@H]4O)[C@]3(O)CO` [TTX, tetrodotoxin], the pIC50 on NaV1.3 was 7.82; at NaV1.6 it was 8.22; at NaV1.8 [2] it was under 4.30; at NaV1.9 it was 6.00; on NaV1.1, 8.00; at NaV1.2, 8.00.

The values are drawn from US8372843B2, “Quinolines useful as modulators of ION channels” (Vertex Pharmaceuticals Incorporated, priority 2005, dated 2013).
